Results published in US5914328A, “Heterocyclic ether compounds useful in controlling neurotransmitter release” (Abbott Laboratories, priority 1995, dated 1999).
Counter-ions that a name gives are not always drawn. Like-named read-outs stand apart in the source and are kept apart here.

How the values were obtained:
[1] = biological target: neuronal nicotinic cholinergic channel receptor; assay: Binding of [3H]-cytisine to neuronal nicotinic receptors, whole rat brain synaptic membranes
Experimental: B. Protocol For Determination of Nicotinic Cholinergic Channel Receptor Binding Potencies of Ligands
Binding of [^3 H]-cytisine ([^3 H]-CYT) to nicotinic receptors was accomplished using crude synaptic membrane preparations from whole rat brain (Pabreza et al., Molecular Pharmacol., 1990, 39:9). Washed membranes were stored at -80° C. prior to use. Frozen aliquots were slowly thawed and resuspended in 20 volumes of buffer (containing: 120 mM NaCl, 5 mM KCl, 2 mM MgCl2, 2 mM CaCl2 and 50 mM Tris-Cl, pH 7.4 @4° C.). After centrifuging at 20,000×g for 15 minutes, the pellets were resuspended in 30 volumes of buffer. Homogenate (containing […]) was added to triplicate tubes containing concentrations of test compound and [^3 H]-CYT (1.25 nM) in a final volume of 500 μL. Samples were incubated for 60 minutes at 4° C., then rapidly filtered through Whatman GF/B filters presoaked in 0.5% polyethylimine using 3×4 mL of ice-cold buffer. The filters are counted in 4 mL of Ecolume® (ICN). […] Alternately, data were expressed as a percentage of the total specific binding.

[2] = tested on: nAChR evoked release of [3H]-dopamine; assay: Striatal dopamine release ([3H]-dopamine, superfused rat striatal slices); type: cell-based; details: standard 100 nM (-)-nicotine = 1.0
Experimental: The protocol for this procedure follows below.
A. Protocol for Determination of Striatal Dopamine Release.
nAChR evoked release of [ring-2,5,6-^3 H]-dopamine (24.4 Ci/mmol) was measured in superfused rat striatal slices. Striata were dissected from two male Sprague-Dawley rats per experiment and sliced 0.35×0.25 mm by a McIlwain Tissue Chopper (Brinkman Instrument Co., Westbury, N.Y.). After two washes with Krebs-HEPES buffer (137 mM NaCl, 4.7 mM KCl, 1 mM MgSO4, 2.5 mM CaCl2, 1.25 mM NaH2 PO4, 10 mM glucose, 15 mM HEPES-NaOH, pH 7.4, containing 10 μM pargyline and 10 μM ascorbic acid), slices were preincubated for 10 minutes at […] under 95%/5% O2 /CO2. After replacing the buffer, slices were labeled with […] [^3 H]-dopamine for 25 min in Krebs-HEPES at […] Aliquots of slices were placed in 18 superfusion chambers of a Brandel SP2000 superfusion apparatus (Brandel, Gaithersberg, Md.). Following 47 minutes of washout, slices were exposed to agonist at various concentrations for4 minutes. Antagonists or inhibitors, when present were introduced 4 minutes prior to and during agonist exposure. Collected fractions were counted in 5 mL of Ecolume. Tissue was recovered from superfusion chambers, solubilized with 1 mL of Solvable™ (DuPont-NEN) and counted in 15 mL of Ecolume. Fractional release of [^3 H]-dopamine was calculated from radioactivity above baseline as a fraction of total radioactivity.

[3] = tested on: cholinergic ligand-gated channels; assay: Cholinergic channel activation in PC12 cells, whole-cell patch-clamp; type: cell-based; details: whole-cell patch-clamp current
Text: D. Protocols for the Determination of Cholinergic Channel Activation in PC12 Cells.
The cholinergic channel activator properties of Example 9 were investigated in PC12 cells using the whole-cell patch-clamp approach to measure current flow through ligand-gated membrane channels.

[4] = read-out: Receptor Binding Ki (Table 2)
[5] = example concentration 10 μM (*)
[6] = read-out: Receptor Binding Ki (Table 1)
[7] = example concentration 0.1 μ (***)
[8] = example concentration 1 μM (**)

SMILES: Cc1ncccc1OC[C@@H]1CCN1 [Example 29, 2-methyl-3-(2-(S)-azetidinylmethoxy)pyridine dihydrochloride]
- Ki [1, 4]: 1.3 nM

SMILES: CN1CCCCC1COc1cccnc1 (stereo not shown) [Example 26, 3-((1-methyl-2-piperidinyl)methoxy)pyridine oxalate salt]
- Ki [1, 4]: 76 nM

SMILES: CN1CCC[C@H]1CCOc1cccnc1.Cl.Cl [Example 103, 3-(2-(1-methyl-2-(S)-pyrrolidinyl)ethoxy)pyridine dihydrochloride]
- Dopamine Release relative to Nicotine [2, 5]: 0.3

SMILES: CC(Oc1cccnc1)[C@@H]1CCCN1C (stereo partly drawn) [Example 6, 3-(a-methyl-(1-methyl-2-(S)-pyrrolidinyl)methoxy)pyridine hydrochloride]
- Ki [1, 4]: 6.7 nM

SMILES: Cc1ccncc1OC[C@@H]1CCCN1C.Cl.Cl [Example 46, 4-methyl-3-((1-methyl-2-(S)-pyrrolidinyl)methoxy)pyridine dihydrochloride]
- Dopamine Release relative to Nicotine [2, 5]: 0.85

SMILES: Cc1ccc(OCC2CCCN2)cn1 (stereo not shown) [Example 37, 6methyl-3-(2-(R-pyrrolidinylmethoxy)pyridinedihydrochloride]
- Ki [1, 6]: 0.5 nM
- Dopamine Release relative to Nicotine [2, 5]: 0.8

SMILES: Cc1ccc(OC[C@@H]2CCCN2)cn1.Cl.Cl [Example 18, 6-methyl-3-(2-(S)-pyrrolidinylmethoxy)pyridine dihydrochloride]
- Dopamine Release relative to Nicotine [2, 7]: 1.0

SMILES: c1cnc(OC[C@@H]2CCN2)cn1 [Example 7]
- Ki ([1]; [3H]-cytisine 1.25 nM, rat brain membranes, 4° C., Table 2, read-out: Receptor Binding Ki (Table 2)): 0.44 nM

SMILES: Clc1ccc(OC[C@@H]2CCN2)cn1 [Example 52, 3-(2-(S)-azetidinylmethoxy)-6-chloropyridine dihydrochloride]
- Dopamine Release relative to Nicotine [2, 5]: 1.0

SMILES: c1cncc(OC[C@@H]2CCCN2)c1 [Example 14, 3-(2-(S)-pyrrolidinylmethoxypyridine fumarate]
- Ki [1, 6]: 0.14 nM
- Dopamine Release relative to Nicotine [2, 8]: 1.0

SMILES: CN1CC[C@H]1COc1cnccn1.Cl.Cl [Example 8, 2-((1-methyl-2-(S)-azetidinyl)methoxy)pyrazine dihydrochloride]
- Dopamine Release relative to Nicotine [2, 5]: 0.55

SMILES: Cc1ccc(OC[C@@H]2CCCN2C)cn1.Cl.Cl [Example 19, 6methyl-3-((1-methyl-2-(S)-pyrrolidinyl)methoxy)pyridine dihydrochloride]
- Ki [1, 6]: 1.47 nM
- Dopamine Release relative to Nicotine [2, 7]: 0.78

SMILES: CN1CCC[C@H]1COc1cnc2ccccc2c1.Cl [Example 31, 3-(1-methyl-2-(S)-pyrrolidinylmethoxy)quinoline hydrochloride]
- Dopamine Release relative to Nicotine [2, 5]: 0.15

SMILES: CN1CCC[C@H]1COc1cncc(Cl)c1 [Example 16, 5chloro-3-((1-methyl-2-(S)-pyrrolidinyl)methoxypyridinedihydrochloride]
- Dopamine Release relative to Nicotine [2, 8]: 1.0

SMILES: CN1CCC[C@@H]1COc1cccnc1.Cl [Example 1, 3-((1-methyl-2-(R)-pyrrolidinyl)methoxy)pyridine hydrochloride]
- Dopamine Release relative to Nicotine [2, 5]: 0.08

SMILES: C[C@@H]1C[C@@H](COc2cccnc2)N(C)C1 [Example 24, 3-((trans-1,4dimethyl-2(S)-pyrrolidinone)methoxy)pyridine dihydrochloride]
- Ki [1, 4]: 4.2 nM

SMILES: CN1CCC[C@H]1COc1cccnc1.O=C(O)/C=C/C(=O)O [Example 4, 3-((1-methyl-2-(S)-pyrrolidinyl)methoxy)pyridine fumarate]
- Dopamine Release relative to Nicotine [2, 5]: 1.0

SMILES: Cc1ccc(OC[C@H]2CCCN2C)cn1 [Example 36, 6-methyl-3-((1-methyl-2-(R)-pyrrolidinyl)methoxy)pyridine dihydrochloride]
- Ki [1, 4]: 26 nM

SMILES: CN1CC[C@H]1COc1cccnc1 [Example 10, 3-((1-methyl-2-(S)-azetidinyl)methoxypyridinedihydrochloride]
- Ki [1, 6]: 0.25 nM
- Dopamine Release relative to Nicotine [2, 5]: 1.0

SMILES: Cl.Cl.Clc1cncc(OC[C@H]2CCCN2)c1 [Example 33, 5-chloro-3-(2-(R)-pyrrolidinylmethoxy)pyridine dihydrochloride]
- Dopamine Release relative to Nicotine [2, 8]: 0.62

SMILES: Cc1ccc(OC[C@@H]2CCN2C)cn1.Cl.Cl [Example 59, 3-((1-methyl-2-(S)-azetidinyl)methoxy)-6-methylpyridine dihydrochloride]
- Dopamine Release relative to Nicotine [2, 5]: 0.7

SMILES: Cl.Cl.c1cncc(OC[C@@H]2CCN2)c1 [Example 9, 3-(2-(S)-azetidinylmethoxy)pyridine dihydrochloride]
- cholinergic channel activator properties (in words) [3]: clear agonist activity
- Dopamine Release relative to Nicotine [2, 5]: 1.0

SMILES: CCN1CCC[C@H]1COc1cccnc1.Cl.Cl [Example 38, 3-((1-ethyl-2(S)-pyrrolidinyl)methoxy)pyridine dihydrochloride]
- Dopamine Release relative to Nicotine [2, 5]: 0.6
